Measurements published in publication PMC6336804, “Identification of selective inhibitors of Helicobacter pylori IMPDH as a targeted therapy for the infection” (Scientific Reports, 2019).
Where two headings read alike, the source gives them in different places.

Legend:
HpIMPDH [1] = biological target: T1, HpIMPDH (Helicobacter pylori, UniProt P56088); assay: HpIMPDH enzyme inhibition assay (NADH fluorescence); assay type: biochemical
T1 construct: His tag; made in house; host or cells: E. coli Rosetta(DE3) pLysS, pET-28a(+)
Method: To calculate the IC50 values, the initial velocity of the reaction is plotted against concentrations of the small molecule inhibitor, and the data is fitted with the Hill equation.
Similar to enzyme kinetic studies, these were also determined by monitoring NADH concentration through the fluorescence measurement. In the presence of IMPDH inhibitor, decreased catalytic activity of the enzyme reduces the formation of NADH. […] The production of NADH was monitored by measuring fluorescence at 440 nm when excited at 340 nm using PerkinElmer EnVision Multilabel Reader (Perkin Elmer, Inc., MA, USA) at 37 °C. In these assays C91 was used as a positive control.
IC50 values for all compounds were calculated with the help of software GraphPad Prism. The equation applied was:2 Y=Bottom+(Top−Bottom)/1+10^((LogIC50−X)∗HillSlope)

HpIMPDH [2] = biological target: T1, HpIMPDH; assay: Mechanism of HpIMPDH inhibition, kinetic studies with varying IMP or NAD+ (Lineweaver-Burk); assay type: biochemical; conditions: for Conclusion: type of inhibition versus IMP / Conclusion: type of inhibition versus NAD+: Table S4
From the text: There are three important mechanisms of enzyme inhibition, viz. competitive, non-competitive and uncompetitive inhibition. […] The initial velocity data were plotted using Lineweaver-Burk equation using GraphPad Prism.
The data is plotted using the Lineweaver-Burk equation.

HpIMPDH [3] = biological target: T1, HpIMPDH; assay type: biochemical; conditions: 100 nM enzyme
From the text: Before carrying out enzymatic assays, it is important to determine the enzyme activity.
The initial velocity data was fitted using Michaelis–Menten equation (1) with the help of GraphPad Prism to calculate enzyme kinetic parameters.1 V=Vmax[S]/KM+[S] where, V is velocity, Vmax is maximum velocity, [S] is substrate concentration, KM is Michaelis–Menten constant.

HpIMPDH [4] = biological target: T1, HpIMPDH; design: method as in ref 3 (a number printed in a supplementary file, which may have a reference list of its own: not looked up in the article's list); conditions: previously reported HpIMPDH data ref 3; cited from earlier work
HsIMPDH-I = system: HsIMPDH-I; design: method as in ref 4 (a number printed in a supplementary file, which may have a reference list of its own: not looked up in the article's list); conditions: HsIMPDH-I ref 4; cited from earlier work
HsIMPDH-II = system: HsIMPDH-II; design: method as in ref 4 (a number printed in a supplementary file, which may have a reference list of its own: not looked up in the article's list); conditions: HsIMPDH-II ref 4; cited from earlier work
AgIMPDH = system: AgIMPDH; design: method as in ref 5 (a number printed in a supplementary file, which may have a reference list of its own: not looked up in the article's list); conditions: AgIMPDH ref 5; cited from earlier work
CpIMPDH = system: CpIMPDH; design: method as in ref 8 (a number printed in a supplementary file, which may have a reference list of its own: not looked up in the article's list); conditions: CpIMPDH ref 8; cited from earlier work
SpIMPDH = system: SpIMPDH; design: method as in ref 9 (a number printed in a supplementary file, which may have a reference list of its own: not looked up in the article's list); conditions: SpIMPDH ref 9; cited from earlier work
BbIMPDH = system: BbIMPDH; design: method as in ref 10 (a number printed in a supplementary file, which may have a reference list of its own: not looked up in the article's list); conditions: BbIMPDH ref 10; cited from earlier work
TfIMPDH = TfIMPDH ref 6; cited from earlier work
PaIMPDH = PaIMPDH ref 7; cited from earlier work
[5] = IC50, HpIMPDH inhibition, 100 nM HpIMPDH, NAD+ 300 µM, IMP 250 µM

T1 sequence (P56088 whole entry): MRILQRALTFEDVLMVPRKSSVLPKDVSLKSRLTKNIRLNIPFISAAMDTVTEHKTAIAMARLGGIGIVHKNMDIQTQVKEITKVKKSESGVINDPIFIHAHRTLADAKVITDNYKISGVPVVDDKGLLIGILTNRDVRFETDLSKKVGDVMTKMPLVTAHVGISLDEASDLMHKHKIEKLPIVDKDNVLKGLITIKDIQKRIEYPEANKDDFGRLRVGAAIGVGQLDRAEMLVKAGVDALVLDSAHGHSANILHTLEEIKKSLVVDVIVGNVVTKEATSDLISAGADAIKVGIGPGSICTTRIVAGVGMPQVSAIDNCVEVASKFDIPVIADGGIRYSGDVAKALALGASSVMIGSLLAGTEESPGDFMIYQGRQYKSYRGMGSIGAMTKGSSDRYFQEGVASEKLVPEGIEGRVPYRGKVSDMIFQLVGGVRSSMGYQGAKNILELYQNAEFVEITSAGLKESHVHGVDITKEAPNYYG

For `O=C(Cn1cc(C(=O)Nc2cccnc2)c2ccccc21)Nc1ccc(Br)cc1` [Compound 2], the “IC50 value (in words)” value (HpIMPDH [1]; HpIMPDH) was “micromolar range”, the IC50 (HpIMPDH [1]; [5]) was 1.89 ± 0.42 µM and the IC50 (HpIMPDH [1]; IC50, inhibition profile of indole based compounds, Table S3) was 1.88 µM. For the same compound, the “Mechanism of HpIMPDH inhibition against both IMP and NAD+” value (HpIMPDH [2]) was “noncompetitive inhibition”, the “Conclusion: type of inhibition versus IMP” value (HpIMPDH [2]) was “Non-competitive inhibition” and the “Conclusion: type of inhibition versus NAD+” value (HpIMPDH [2]) was “Non-competitive inhibition”.

For `O=C(Cn1c(-c2ccccn2)nc2ccccc21)Nc1ccc2ccccc2c1` [Compound 1, reference compound], the IC50 (HpIMPDH [1]; [5]) was 0.155 ± 0.082 µM, the “Mechanism of HpIMPDH inhibition against both IMP and NAD+” value (HpIMPDH [2]) was “uncompetitive” and the “Conclusion: type of inhibition versus IMP” value (HpIMPDH [2]) was “Un-competitive inhibition”. The “Conclusion: type of inhibition versus NAD+” value (HpIMPDH [2]) was “Un-competitive inhibition”.

In the case of `NC(=O)c1ccc[n+]([C@@H]2O[C@H](COP(=O)([O-])OP(=O)(O)OC[C@H]3O[C@@H](n4cnc5c(N)ncnc54)[C@H](O)[C@@H]3O)[C@@H](O)[C@H]2O)c1` [NAD^+], the “kcat of HpIMPDH for the substrate” value (HpIMPDH [3]) is listed as 5.96 ± 0.53 S^−1, the Km (HpIMPDH [3]; varying NAD+, IMP 500 µM constant) is listed as 76.4 ± 1.09 µM and the Km (HpIMPDH [4]) is listed as 73 ± 6 µM. For the same compound, the Km (HsIMPDH-I) was 32 ± 3.4 µM, the Km (HsIMPDH-II) was 46 ± 2.8 µM and the Km (AgIMPDH) was 280 ± 24.7 µM. The Km (CpIMPDH) was 150 ± 20 µM, the Km (SpIMPDH) was 1180 ± 400 µM and the Km (BbIMPDH) was 1100 ± 160 µM. For the same compound, the Km (TfIMPDH) was 150 ± 30 µM and the Km (PaIMPDH) was 1760 ± 109 µM.
